These results are taken from patent publication US20240336608A1, “IL4I1 INHIBITORS AND METHODS OF USE” (Merck Sharp & Dohme LLC, priority 2023, published 2024).

The structures appear in SMILES notation.

The target in the assay is T1, recombinant IL4I1 (Homo sapiens, UniProt Q96RQ9).
T1 construct: purchased R&D Systems 5684-AO-020
T1 sequence (Q96RQ9 22-567): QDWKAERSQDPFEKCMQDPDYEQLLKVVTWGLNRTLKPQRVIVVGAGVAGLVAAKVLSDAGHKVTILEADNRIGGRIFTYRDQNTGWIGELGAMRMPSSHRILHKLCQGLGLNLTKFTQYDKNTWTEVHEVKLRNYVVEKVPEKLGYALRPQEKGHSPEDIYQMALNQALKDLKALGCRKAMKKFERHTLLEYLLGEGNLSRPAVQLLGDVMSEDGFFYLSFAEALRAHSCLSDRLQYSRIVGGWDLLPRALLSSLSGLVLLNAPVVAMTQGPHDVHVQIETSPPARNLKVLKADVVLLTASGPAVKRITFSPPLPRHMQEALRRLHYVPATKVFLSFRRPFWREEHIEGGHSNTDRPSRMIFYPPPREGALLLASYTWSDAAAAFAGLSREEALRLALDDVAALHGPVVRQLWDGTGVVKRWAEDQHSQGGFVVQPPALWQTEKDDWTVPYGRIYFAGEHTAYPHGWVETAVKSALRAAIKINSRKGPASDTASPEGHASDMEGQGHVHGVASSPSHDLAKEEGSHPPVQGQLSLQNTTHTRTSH
Briefly: IL4I1 Enzymatic Assay (Amplex Red/HRP coupled detection of H2O2, fluorescence). Format: biochemical. To be noted: 1 nM recombinant IL4I1; four-hour pre-incubation with compound; 1 mM each Phe, Tyr, Trp; ten-point titration. On the procedure: Interleukin 4 inducible protein 1 (IL4I1) is an L-amino oxidase that catalyzes the oxidation of aromatic residues (Phe, Trp and Tyr): L-amino acid+H2O+O2→2-oxo acid+NH3+H2O2. Equal molar of H2O2 and the corresponding alpha-ketoacid are produced when IL4I1 and substrate are added. In this assay, the hydrogen peroxide generated by IL4I1 is then detected through a coupled reaction with Amplex Red (10-acetyl-3,7-dihydroxyphenoxazine) and […] (HRP) to produce Resorufin product that could be detected in the form of fluorescence signals. The assessment of the inhibitory effect of small molecules (EC50) on IL4I1 is measured by the effectiveness of the compounds to inhibit the production of H202.
Using this assay, the potency (EC50) of each compound was determined from a ten-point (1:3 serial dilution) titration curve using the following outlined procedure. To each well of a black flat-bottom Greiner (Cat #781076) 384 well-plate, 125 nL of compound (0.5% DMSO in final assay volume of 25 μL) was dispensed, followed by the addition of 12.5 μL of 1× assay buffer (50 mM Hepes 7.0 and 0.005% Tween20 (Sigma, Cat #P8341; low peroxide grade)) containing 2 nM of recombinant IL4I1 (R&D Systems, Cat #5684-AO-020). Plates were placed in an ambient temperature humidified chamber for a four-hour pre-incubation with compound. Subsequently, each reaction was initiated by the addition of 12.5 μL 1× assay buffer containing 2 mM of each aromatic amino acids (Phe/Tyr/Trp), 0.1 mM Amplex Red and 2 U/mL of HRP. The final reaction in each well of 25 μL consists of 1 nM of IL4I1, 1 mM of each residue (Phe, Tyr and Trp), 0.05 mM Amplex Red and 1 U/mL of HRP. It should be noted that the concentrations of Amplex Red and HRP used here are in excess such that the conversion of H2O2 to Resorufin product occurs instantaneously and non-rate limiting. Reactions were allowed to proceed for 120 minutes followed by fluorescence readout on a Spectramax with the following set parameters: 544 nm excitation/590 nm emission, 570 nm cutoff (EnVision is an alternative reader). Dose-response curves were generated by plotting percent effect (% inhibition; Y-axis) vs. Log10 compound concentrations (X-axis). EC50 values were calculated using a non-linear regression, four-parameters sigmoidal dose-response model and are shown in Table 16.
As usually defined, the EC50 is the concentration giving half of the maximal effect. Consider `CC(CC(F)(F)F)n1cc(C(=O)NCc2nnc(-c3ccccc3)s2)nn1` (single isomer, unassigned) [Example 63, N-((5-phenyl-1,3,4-thiadiazol-2-yl)methyl)-1-(4,4,4-trifluorobutan-2-yl)-1H-1,2,3-triazole-4-carboxamide], for which the concentration for a half-maximal effect (EC50) worked out at 18 nM.

As to `CC(CC(F)(F)F)n1cc(C(=O)NCc2nnc(-c3ccccc3)s2)nn1` (single isomer, unassigned) [Example 64, N-((5-phenyl-1,3,4-thiadiazol-2-yl)methyl)-1-(4,4,4-trifluorobutan-2-yl)-1H-1,2,3-triazole-4-carboxamide], the EC50 worked out at 93 nM. In the case of `O=C(NCc1nnc(-c2ccccc2)s1)c1cn(C2CC2(F)F)nn1` (single isomer, unassigned) [Example 130, 1-(2,2-difluorocyclopropyl)-N-((5-phenyl-1,3,4-thiadiazol-2-yl)methyl)-1H-1,2,3-triazole-4-carboxamide], the EC50 is 5 nM.

As to `O=C(NCc1nnc(-c2ccccc2)s1)c1cn(C2CC2(F)F)nn1` (single isomer, unassigned) [Example 131, 1-(2,2-difluorocyclopropyl)-N-((5-phenyl-1,3,4-thiadiazol-2-yl)methyl)-1H-1,2,3-triazole-4-carboxamide], the concentration for a half-maximal effect (EC50) was found to be 54 nM. Next, `CC1CC1n1cc(C(=O)NCc2nnc(-c3ccccc3)s2)nn1` (single isomer, unassigned) [Example 132, Cis-1-(2-methylcyclopropyl)-N-((5-phenyl-1,3,4-thiadiazol-2-yl)methyl)-1H-1,2,3-triazole-4-carboxamide]: 7 nM; `CC1CC1n1cc(C(=O)NCc2nnc(-c3ccccc3)s2)nn1` (single isomer, unassigned) [Example 133, Cis-1-(2-methylcyclopropyl)-N-((5-phenyl-1,3,4-thiadiazol-2-yl)methyl)-1H-1,2,3-triazole-4-carboxamide]: 92 nM; `O=C(NCc1nnc(-c2ccccc2)s1)c1cn(CC(O)C(F)F)nn1` (single isomer, unassigned) [Example 138, 1-(3,3-difluoro-2-hydroxypropyl)-N-((5-phenyl-1,3,4-thiadiazol-2-yl)methyl)-1H-1,2,3-triazole-4-carboxamide]: 25 nM.

`O=C(NCc1nnc(-c2ccccc2)s1)c1cn(CC(O)C(F)F)nn1` (single isomer, unassigned) [Example 139, 1-(3,3-difluoro-2-hydroxypropyl)-N-((5-phenyl-1,3,4-thiadiazol-2-yl)methyl)-1H-1,2,3-triazole-4-carboxamide]: the half-maximal effective concentration (EC50) came out at 123 nM. With `O=C(NCc1nnc(-c2ccccc2)s1)c1cn([C@@H]2C[C@H]2CO)nn1` (single isomer, unassigned) [Example 141, Trans-1-(2-(hydroxymethyl)cyclopropyl)-N-((5-phenyl-1,3,4-thiadiazol-2-yl)methyl)-1H-1,2,3-triazole-4-carboxamide], the EC50 is 5 nM. Regarding `O=C(NCc1nnc(-c2ccccc2)s1)c1cn([C@@H]2C[C@H]2CO)nn1` (single isomer, unassigned) [Example 142, Trans-1-(2-(hydroxymethyl)cyclopropyl)-N-((5-phenyl-1,3,4-thiadiazol-2-yl)methyl)-1H-1,2,3-triazole-4-carboxamide], the EC50 turned out to be 33 nM. Regarding `O=C(NCc1nnc(-c2ccccc2)s1)c1cn(C2C[C@@H]2C(F)F)nn1` (single isomer, unassigned) [Example 143, Trans-1-(-2-(difluoromethyl)cyclopropyl]-N-[(5-phenyl-1,3,4-thiadiazol-2-yl)methyl]-1H-1,2,3-triazole-4-carboxamide], the 50% effective concentration (EC50) was determined as 179 nM.

As to `O=C(NCc1nnc(-c2ccccc2)s1)c1cn(C2C[C@@H]2C(F)F)nn1` (single isomer, unassigned) [Example 144, Trans-1-(-2-(difluoromethyl)cyclopropyl]-N-[(5-phenyl-1,3,4-thiadiazol-2-yl)methyl]-1H-1,2,3-triazole-4-carboxamide], the half-maximal effective concentration (EC50) amounted to 383 nM. For `O=C(NCc1nnc(-c2ccccc2)s1)c1cn([C@@H]2C[C@@H]2C(F)F)nn1` (single isomer, unassigned) [Example 145, cis-1-(-2-(difluoromethyl)cyclopropyl]-N-[(5-phenyl-1,3,4-thiadiazol-2-yl)methyl]-1H-1,2,3-triazole-4-carboxamide], the 50% effective concentration (EC50) is 5 nM. As for `O=C(NCc1nnc(-c2ccccc2)s1)c1cn([C@@H]2C[C@@H]2C(F)F)nn1` (single isomer, unassigned) [Example 146, cis-1-(-2-(difluoromethyl)cyclopropyl]-N-[(5-phenyl-1,3,4-thiadiazol-2-yl)methyl]-1H-1,2,3-triazole-4-carboxamide], the EC50 is 244 nM. `CC(NC(=O)c1cn(C2CC2)nn1)c1nnc(-c2ccccc2)s1` (single isomer, unassigned) [Example 244, 1-cyclopropyl-N-(1-(5-phenyl-1,3,4-thiadiazol-2-yl)ethyl)-1H-1,2,3-triazole-4-carboxamide]: the EC50 is 587 nM. Next, `CC(NC(=O)c1cn(C2CC2)nn1)c1nnc(-c2ccccc2)s1` (single isomer, unassigned) [Example 245, 1-cyclopropyl-N-(1-(5-phenyl-1,3,4-thiadiazol-2-yl)ethyl)-1H-1,2,3-triazole-4-carboxamide]: 23 nM; `CC(NC(=O)c1cn(CC(F)F)nn1)c1nnc(-c2ccccc2)s1` (single isomer, unassigned) [Example 251, 1-(2,2-difluoroethyl)-N-(1-(5-phenyl-1,3,4-thiadiazol-2-yl)ethyl)-1H-1,2,3-triazole-4-carboxamide]: 84 nM; `CC(NC(=O)c1cn(CC(F)F)nn1)c1nnc(-c2ccccc2)s1` (single isomer, unassigned) [Example 252, 1-(2,2-difluoroethyl)-N-(1-(5-phenyl-1,3,4-thiadiazol-2-yl)ethyl)-1H-1,2,3-triazole-4-carboxamide]: 15 nM. Consider `CC(NC(=O)c1cn(C)nn1)c1nnc(-c2ccccc2)s1` (single isomer, unassigned) [Example 258, 1-methyl-N-(1-(5-phenyl-1,3,4-thiadiazol-2-yl)ethyl)-1H-1,2,3-triazole-4-carboxamide], for which the EC50 was determined as 492 nM. For `CC(NC(=O)c1cn(C)nn1)c1nnc(-c2ccccc2)s1` (single isomer, unassigned) [Example 259, 1-methyl-N-(1-(5-phenyl-1,3,4-thiadiazol-2-yl)ethyl)-1H-1,2,3-triazole-4-carboxamide], the EC50 was determined as 26 nM. As for `Cc1ccc(-n2cc(C(=O)NC(C)c3nnc(-c4ccccc4)s3)nn2)c(C)n1` (single isomer, unassigned) [Example 262, 1-(2,6-dimethylpyridin-3-yl)-N-(1-(5-phenyl-1,3,4-thiadiazol-2-yl)ethyl)-1H-1,2,3-triazole-4-carboxamide], the EC50 came to 85 nM. Then `Cc1ccc(-n2cc(C(=O)NC(C)c3nnc(-c4ccccc4)s3)nn2)c(C)n1` (single isomer, unassigned) [Example 263, 1-(2,6-dimethylpyridin-3-yl)-N-(1-(5-phenyl-1,3,4-thiadiazol-2-yl)ethyl)-1H-1,2,3-triazole-4-carboxamide], with 33 nM; and `CC(C#N)n1cc(C(=O)NCc2cc(-c3ccncc3)on2)nn1` (single isomer, unassigned) [Example 275, 1-(1-cyanoethyl)-N-((5-(pyridin-4-yl)isoxazol-3-yl)methyl)-1H-1,2,3-triazole-4-carboxamide], with 25 nM.
